We go through three compounds from patent US20240173374A1, “LIPOSOMAL FORMULATIONS OF BORONIC ACID CONTAINING ACTIVE AGENTS” (Ohio State Innovation Foundation, priority 2021, published 2024).

Data set [1] is described as follows: BTZ / boronic acid drug loading into liposomes (UV absorption or HPLC). The format is physicochemical. The conditions noted are these: tiron-based liposomes, same drug loading protocol. As to the method:
Remote loading of BTZ into liposomes encapsulating calcium ascorbate/calcium acetate. Lipids (DSPC/Chol/mPEG-DSPE 60:35:5 mole/mole) were dissolved in chloroform, dried into a thin film on a round-bottom flask and hydrated in 100 mM calcium ascorbate/50 mM calcium acetate (pH 8). The resulting liposomes were subjected to 5 cycles of freezing and thawing and extrusion through a 100-nm pore size polycarbonate membrane in a Lipex extruder at 65 degree. […] External buffer of the liposomes was exchanged to 130 mM NaCl/10 mM histidine (pH 6) by passing through a Sepharose CL-4B column. […] BTZ was dissolved in a small volume of DMSO and added to the liposomes and incubated under stirring at 20-60 degrees for 10-60 min (e.g., 30 min at 50 degree) to facilitate remote loading. BTZ diffuses into the liposomes and forms a complex with ascorbic acid (BTZ-ASC complex), which is negatively charged and partially precipitates intraliposome with calcium, resulting in stable encapsulation of the BTZ. Finally, unencapsulated BTZ was removed from the liposomes by passing through a Sepharose CL-4B column. BTZ concentration in the L-BTZ was determined by UV absorption or by HPLC. […]
Remote loading of BTZ into liposomes containing ascorbyl palmitate (ASC-C16) and encapsulating calcium acetate. […] BTZ concentration in the L-BTZ was determined by UV absorption or by HPLC. […]

Data set [2] in a line: Plasma pharmacokinetics of L-BTZ and Velcade in rats after single dose. The format is in vivo. The conditions noted are these: 0.6 mg/kg, 5 ul/g, plasma BTZ by LC-MS. As to the method:
Plasma concentrations were determined by LC-MS. Compared to Velcade, the circulation time L-BTZ was much longer, which subsequently enhances the therapeutic effect and half-life time in vivo.

For data set [3] the following is noted: AML trial; cited from earlier work.
Data set [4] has as its system NCI-H929 multiple myeloma. Description: Antitumor activity in NCI-H929 multiple myeloma subcutaneous murine xenograft model. The format is in vivo, mice. The conditions noted are these: FIG. 3B. The text has this: (3A) anti-tumor effect, (3B) body weight loss, and (3C) survival curves result in vivo.
In data set [5] the test system is AML murine model. The conditions noted are these: cited from earlier work.
The conditions of data set [6]: clinical trial for SLE; cited from earlier work.

In the case of `CC(C)C[C@H](NC(=O)[C@@H](NC(=O)c1cccc(-c2ccccc2)n1)[C@@H](C)O)B(O)O` [delanzomib], the drug loading result in data set [1] is listed as “High drug loading”.

The AUC(0-inf) is total exposure, with the tail of the curve extrapolated. A high value points to high exposure. What is called AUC(0-t) is the area under the concentration-time curve up to a stated or last time point. As a reminder, the Cmax is the maximum level reached in the sampled fluid or tissue. A word on the Tmax: it is the time at which the peak concentration occurs. Broadly, the half-life is the time in which the quantity being followed falls by half. The low end stands for rapid decline, the high end for slow decline. In data set [2] (i.v.), `CC(C)C[C@H](NC(=O)[C@H](Cc1ccccc1)NC(=O)c1cnccn1)B(O)O` [free BTZ, Bortezomib] displayed a CLss_F of 18.9 mL/min/kg and a Vz_F of 54.22 L/kg. Moreover, in data set [2] (rat, iv), the AUC(0-inf) worked out at 864 ng·h/mL, the AUC(0-t) stood at 322 ng·h/mL, the Cmax was 45.4 ng/mL and the Tmax came to 0.25 h. Also, the half-life in data set [2] (rat, iv) is 33.1 h. For the same compound, the “drop out due to neurotoxicity” value in data set [3] was 4/7. For the same compound, the “body weight loss during treatment” value in data set [4] is on record as “no significant body weight loss”. In addition, the “reaching effective dose (limited by toxicity)” value in data set [5] is given as “cannot reach effective dose”. For the same compound, the “dropped out due to side effects” value in data set [6] was 7/12.

As for `CC(C)C[C@H](NC(=O)CNC(=O)c1cc(Cl)ccc1Cl)B(O)O` [ixazomib], the drug loading entry in data set [1] was “High drug loading”.
